Like-named read-outs stand apart in the source and are kept apart here. Ends that are not written are not given here.
Columns and labels:
[1] = target: T1, R102Q NCS-1 (Rattus norvegicus, UniProt P62168, R102Q); assay: Intrinsic tryptophan fluorescence titration of peptide binding to R102Q NCS-1
T1 construct: His tag (TEV-cleavable, pET-M11) (N, cleaved yes); made in house; host or cells: E. coli BL21 (DE3)
Procedure: (§1) An expression construct of Rattus norvegicus NCS-1 [6] was sub-cloned from a pGEX-6p plasmid expressing NCS-1 [36] into pET-M11 vector. The primers were designed based on the cDNA sequence obtained from GenBank accession no. L27421 with Nco-1 and Kpn-1 as restriction digest sites. The sense and antisense strands were 5′[…] 3′ and 5′[…] CTA TAC CAG CCC GTC GTA 3 ′ respectively. Polymerase chain reaction was carried out using KOD Hot Start DNA Polymerase from Novagen. Confirmation of the insert was obtained through DNA sequencing. The R102Q mutation was generated by site-directed mutagenesis.
(§2) To monitor intrinsic tryptophan fluorescence of NCS-1 proteins, [37], purified recombinant NCS-1 at a concentration of 1 µM in a calcium free buffer (20 mM HEPES, 139 mM NaCl, 2 mM ATP, 5 mM EGTA, 5 mM nitrolotriacetic acid, pH 7.4) were excited at room temperature with 280 nm light, and their emission spectra from 290–410 nm were measured, using a Jasco FP-6300 spectrofluorometer (Tokyo, Japan). The concentration of free calcium was increased by addition of CaCl2 to give a calculated free Ca^2+ concentration of 1 µM and an additional emission spectrum were measured. The D2 peptide was then added to give incremental increase in peptide concentration with emission spectra measured after each addition. The data for the measured fluorescence change at each peptide concentration were fitted to a logistic fit using non-linear curve fitting in OriginPro (Microcal).
Figure 6 Significant line-broadening in the C-terminal region of NCS-1 and effect of the R102Q mutation on peptide binding. […] (B) Extent of the changes in tryptophan fluorescence following sequential additions of D2SR peptide to the final concentrations indicated in the presence of 1 µM Ca^2+. […] (C) Curve fitting of data from separate tryptophan fluorescence experiments enables determination of the concentration of D2SR peptide required for half-maximal binding and the Hill coefficient for wild type and R102Q NCS-1. […]

[2] = target: T2, NCS-1 (Rattus norvegicus, UniProt P62168); assay: Intrinsic tryptophan fluorescence titration of peptide binding to wild type NCS-1
T2 construct: His tag (TEV-cleavable, pET-M11) (N, cleaved yes); made in house; host or cells: E. coli BL21 (DE3)
Procedure: as §1
NCS-1 plasmid was transformed into E.coli strain BL21 (DE3) (Novagen). Protein expression in Luria Broth (LB) and 2M9 minimal media performed by growing the cells to mid log (0.6–0.7 OD A^o600) at 30 °C; after induction with 1 mM IPTG the culture was left to grow overnight at 18 °C. ^15N NCS-1 and doubly labelled ^13C^15N proteins were expressed using 2M9 media containing ^15NH4Cl only or ^13C glucose and ^15NH4Cl as the carbon and nitrogen source. 1 ml of the starter culture was grown in LB overnight, centrifuged, and the pellet added to a 50 ml labelled media and left to grow overnight in 50 ml labelled culture. The overnight culture was used to inoculate the labelled growth medium so that the starting optical density was less than 0.1 A-600 and protein expressed as described above. […]
as §2
Figure 2 Binding of the dopamine D2 receptor C-terminus to NCS-1 monitored using tryptophan fluorescence. (A) The spectra represent intrinsic tryptophan fluorescence of NCS-1 before and after addition 1 µM Ca^2+ and after subsequent addition of the D2SR peptide. (B) Extent of the changes in tryptophan fluorescence following sequential additions of D2SR peptide to the final concentrations indicated. […]

[3] = target: T2, NCS-1; assay: NMR titration / chemical shift mapping of peptide binding to NCS-1
Procedure: as §1
NCS-1 plasmid was transformed into E.coli strain BL21 (DE3) (Novagen). Protein expression in Luria Broth (LB) and 2M9 minimal media performed by growing the cells to mid log (0.6–0.7 OD A^o600) at 30 °C; after induction with 1 mM IPTG the culture was left to grow overnight at 18 °C. ^15N NCS-1 and doubly labelled ^13C^15N proteins were expressed using 2M9 media containing ^15NH4Cl only or ^13C glucose and ^15NH4Cl as the carbon and nitrogen source. 1 ml of the starter culture was grown in LB overnight, centrifuged, and the pellet added to a 50 ml labelled media and left to grow overnight in 50 ml labelled culture. The overnight culture was used to inoculate the labelled growth medium so that the starting optical density was less than 0.1 A-600 and protein expressed as described above. Cells were harvested and resuspended into the lysis buffer (50 mM TrisHCl, 200 mM NaCl 5 mMCaCl2 pH 7.5 plus a tablet per litre of culture of Complete EDTA Free Protease inhibitor (Roche Applied Science).
NCS-1 was prepared in Tris buffer pH 6.8 in the presence of 5 mM MgCl2 and 5 mM CaCl2. Unless otherwise state, NMR spectra were recorded at 27 °C on Bruker DRX 800 and 600 MHz spectrometers equipped with CryoProbes. Data were processed using the Bruker Software TopSpin and analysed using CCPN software. Sequence-specific backbone and side-chain resonance assignment of NCS-1 was transferred from the previously reported assignments on unmyristoylated Ca^2+ loaded NCS-1 (Biological Magnetic Resonance Data Bank accession number 4378); however, due to differences in sample conditions and temperature, many resonances were re-assigned during the course of these studies using HNCA, HN(CO)CA, HNCO, HN(CA)CO, CBCA(CO)NH, CBCANH, HBHA(CO)NH and HCCH-TOCSY experiments. In addition, the resonance assignment for the aromatic side-chain had been incomplete. The aromatic side-chains were partially assigned using 2D [^1H, ^13C] -TROSY, and homonuclear TOCSY and NOESY spectra recorded in D2O.
(§3) Two peptides D2 and D2SR were used for the NMR studies. […] The peptides were first dissolved in minimal amounts of DMSO (approximately 1–2 µl) before adding the protein solution to achieve the appropriate peptide to protein ratio.
The minimum chemical-shift differences between free and D2-bound NCS-1 were expressed as: Δδ = √ {(ΔH/0.03)^2 + (ΔN/0.03)^2}. Values of Δδ greater than 0.07 were considered significant.
Figure 3 Interactions between NCS-1 and D2 Peptide monitored using NMR spectroscopy. (A) ^1H^15N HSQC spectra of ^15N,^13C NCS-1 (1 mM) in 50 mM Tris buffer, 50 mM NaCl, 5 mM CaCl2, pH 6.5, 300 K on Avance Bruker 800 MHz spectrometer in the absence (black) or in the presence of D2SR at a final concentration of 5 mM (red). (B) Sections of ^1H^15N HSQC spectra of ^15N,^13C NCS-1 showing the progression of peaks throughout the peptide titration (from black to red). Shown are the various characteristics of resonance perturbation ranging from complete line-broadening to gradual change in chemical shifts or a mixture of shifts and line-broadening. (C) ^1H^13C HSQC spectra of ^15N,^13C NCS-1 (1 mM) (black) in the presence of D2SR (final concentration of 5 mM) (red) indicating some of the resolved methyl groups with most significant shift changes.

[4] = Solubility of peptides in aqueous buffer; format: physicochemical
From the text: The peptide (hereafter referred to as D2 peptide) used here corresponds to residues 428–443 of the human D2 receptor. The synthetic D2 peptide ([…]) and its modified form D2SR ([…]), were purchased from Peptide Protein Research Ltd., Fareham, PO15 6DP, UK. The shorter form, corresponding to residues 428–435 ([…]) were, purchased from GenicBio, China. The peptides was delivered >95% pure. […] Therefore, in all the experiments, peptide samples were first dissolved in a minimal amount of DMSO and then diluted with the relevant buffer. If necessary, pH values of the samples were re-adjusted to the desired value.
as §3

[5] = tested on: NCS-1; assay: Peptide binding to NCS-1, preliminary data (technique not stated)
[6] = tested on: NCS-1; settings: receptor residues 428–435; cited from earlier work
From the text: This seems surprising as these are the cytoplasmic residues in closest proximity to the transmembrane domain of the receptor and that in the structure of the dopamine D3 receptor (PDB accession 3PBL), the first two amino acids TF form part of penultimate helix VII of the receptor, rather than the C-terminus helix VIII.

[7] = up to a 10-fold excess of peptide

T2 sequence (P62168 whole entry): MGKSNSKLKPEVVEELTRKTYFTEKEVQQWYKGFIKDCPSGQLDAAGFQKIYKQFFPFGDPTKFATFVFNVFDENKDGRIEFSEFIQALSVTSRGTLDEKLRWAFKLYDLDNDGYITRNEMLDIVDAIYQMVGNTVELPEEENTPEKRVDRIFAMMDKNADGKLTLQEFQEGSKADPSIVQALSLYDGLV
T1 sequence (P62168 whole entry R102Q): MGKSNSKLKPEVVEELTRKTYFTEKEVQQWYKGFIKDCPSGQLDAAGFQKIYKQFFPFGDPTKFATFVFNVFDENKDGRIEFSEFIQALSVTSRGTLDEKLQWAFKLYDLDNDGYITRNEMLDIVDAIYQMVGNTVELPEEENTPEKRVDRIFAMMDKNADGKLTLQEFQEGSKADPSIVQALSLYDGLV

## TFNIEFRKAFLKILHSR [D2SR]
[1]; D2SR, R102Q NCS-1, 1 µM Ca^2+, logistic fit, n = 4
  Hill coefficient: around 1.5
[1]; R102Q (n = 4) versus wild type (n = 5) NCS-1, 1 µM Ca^2+, unpaired Student's t-test
  increase in affinity of the protein for D2SR by R102Q mutation: 2.07 fold
[1]; compared with wild-type NCS-1
  affinity of binding to R102Q versus wild type NCS-1: affinity of binding was increased in the mutant
[2]; 1 µM free Ca^2+
  change in NCS-1 tryptophan fluorescence above that following addition of 1 µM free Ca^2+: additional increase in fluorescence of a similar magnitude
[2]; D2SR, wild type NCS-1, 1 µM free Ca^2+, logistic fit, n = 5
  Hill coefficient: ~1.5
[3]; HSQC titration, D2SR
  exchange regime of NCS-1 resonances: intermediate to fast exchange regime
  least affected NCS-1 regions: helices1, 5, 8 and part of 2
  most affected NCS-1 regions, mapped onto 1G8I: residues located either in the hydrophobic ligand-binding crevice or in the regions linking the helical regions of the EF hands
[3]; ^1H-^15N and ^1H-^13C HSQC of ^15N,^13C NCS-1, 27 °C and 35 °C
  NCS-1 resonance perturbation (chemical shift changes/broadening): At both temperatures chemical shift changes and/or broadening of specific NCS-1 resonances were observed
[3]; ^1H^15N HSQC, peptide titration, 1 mM NCS-1, 0.5 mM D2SR, pH 6.5, 300 K
  line-broadening of C-terminal residues 180–190 (helix 11) of NCS-1: line-broadening occurring at sub-stoichiometric concentrations of D2SR
[4]; peptides first dissolved in DMSO, then diluted with buffer
  solubility in aqueous buffer: rather insoluble in aqueous buffer
[4]; two extra amino acids intended to increase solubility
  solubility improvement over D2 peptide: solubility improvement was only marginal

## NIEFRKAFLKILHS
[5]
  affinity for NCS-1 relative to TFNIEFRKAFLKILHS: able to bind NCS-1 with similar affinity to […]

## TFNIEFRKAFLKILHC [D2 peptide]
[4]
  solubility in aqueous buffer: rather insoluble in aqueous buffer

## TFNIEFRK [shorter form, corresponding to residues 428–435 of the D2 receptor]
[6]
  binding to NCS-1 (yeast 2-hybrid): shortest peptide that could bind NCS-1
[2]; 8-residue peptide, binding assays = fluorescence and NMR titrations
  ability to bind NCS-1 (restated finding, binding assays): not able to bind NCS-1
[2]; [7]
  interaction with NCS-1 by fluorescence titration: no evidence for an interaction
[3]; [7]
  interaction with NCS-1 by NMR titration: no evidence for an interaction

From publication PMC3218054, “Characterisation of the Interaction of the C-Terminus of the Dopamine D2 Receptor with Neuronal Calcium Sensor-1” (PLoS ONE, 2011)
